Test results: patent US7288258B2, “Polyepitopic protein fragments of the E6 and E7 proteins of HPV, their production and their use particularly in vaccination” (Peptide Immune Ligands, priority 1999, dated 2007)

Legend:
Experiment in all cases: association of peptide with HLA molecules and stability of the complex
Conditions in all cases: stable complex: peptide remains bound for at least about 3 hours at 37° C.
[1] = tested on: HLA molecules of the B18 type; type: binding, human
From the text: (§1) The different epitopes of the polyepitopic region of the predetermined protein, and delimiting the epitopic protein fragments, are preferably selected from the peptides; • binding to a predetermined molecule of MCH, particularly to a molecule of the predetermined HLA type, and this from concentrations of about 10^−6 M to about 10^−10 M in peptide for concentrations of about 10^−7 M of HLA molecules, particularly under the conditions described hereafter, • and forming a stable complex with said MCH molecule, namely particularly a complex in which said peptide remains bound to said molecule for at least about 3 hours at 37° C.
(§2) By way of illustration, the above-mentioned epitopes of the invention are selected from among the peptides adapted: • on the one hand of associating with the molecules of MCH, particularly by using the following method: • incubation (particularly for about 2 hours at 25° C., then about 15 hours at 4° C.) of the peptide in the presence of MCH molecules, from the lysis of human or animal cells, or purified particularly by affinity chromatography from human or animal cell lines, • trapping complexes formed during the preceding step on a solid support covered with a first antibody, particularly monoclonal, recognizing specifically the CMH molecules in their configuration dependent on their connection to said peptide, • addition to the preceding solid support of a second marked antibody, particularly by coupling to a radioactive, enzymatic or fluorescent marker, said marked antibody recognizing specifically either the long chains of MCH in their configuration dependent on their connection to the peptide, or the short chain of MCH or the β2-microglobulin binding specifically to the different long chains of the MCH in their above-mentioned configuration, • detection, after rinsing of the solid support, of the possible presence of the second marked antibody remaining fixed on the solid support, signifying an association effect between the molecules of MCH and the peptide studied, • and, on the other hand, forming a complex with said MCH molecules, whose stability can be evaluated by the use of a method of following according to time the connection established between the peptide and the MCH molecules, this method being preferably carried out according to a protocol identical to the preceding method, but in which the incubation step of the peptide in the presence of MCH molecules on the solid support covered with said first antibody, is preceded by a preliminary step of eliminating the free peptide adapted that may be present in the reaction medium, particularly by washing the solid support, said incubation step being carried out (preferably at a temperature of 37° C.) for variable times of 1 hours, 3 hours, 5 hours, 24 hours and 48 hours.
(§3) As mentioned above, the epitopes of the invention should be recognized by the T cells in association with the MCH molecules and associate with these latter, particularly in the framework of the practice of the recognition test described above. This association can be weak (detectable at concentrations of peptide analogs of the order of 10^−4 to 10^−5 M), intermediate (detectable at concentrations of peptide analogs of the order of 10^−6 to 10^−7 M), or strong (detectable at concentrations of peptide analogs of the order of 10^−8 to 10^−9 M). The peptides associated with the MCH molecules in the scope of the present invention are preferably adapted to bond during at least about 3 hours, to said MCH molecules.

[2] = tested on: HLA molecules of the B35 type; type: binding, human
From the text: as §1, §2, §3

[3] = tested on: HLA molecules of the B51 type; type: binding, human
From the text: as §1, §2, §3

[4] = tested on: HLA molecules of the B8 type; type: binding, human
From the text: as §1, §2, §3

[5] = tested on: HLA molecules of the A2 type; type: binding, human
From the text: as §1, §2, §3

[6] = molecular target: T1, HLA molecules of the B7 type (Homo sapiens, UniProt P01889); type: binding
T1 construct: endogenous in cells
T1 sequence (P01889 25-362): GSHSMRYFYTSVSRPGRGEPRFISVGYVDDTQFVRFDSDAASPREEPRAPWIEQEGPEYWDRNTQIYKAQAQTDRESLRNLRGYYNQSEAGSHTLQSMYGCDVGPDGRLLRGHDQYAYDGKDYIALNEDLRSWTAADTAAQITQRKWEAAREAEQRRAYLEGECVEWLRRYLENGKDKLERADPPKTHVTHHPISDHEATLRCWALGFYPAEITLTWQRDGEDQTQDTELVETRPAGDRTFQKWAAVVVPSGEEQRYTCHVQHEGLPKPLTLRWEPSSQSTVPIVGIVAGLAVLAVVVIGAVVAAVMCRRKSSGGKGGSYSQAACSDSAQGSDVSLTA
T1 sequence (P61769 21-119, further chain): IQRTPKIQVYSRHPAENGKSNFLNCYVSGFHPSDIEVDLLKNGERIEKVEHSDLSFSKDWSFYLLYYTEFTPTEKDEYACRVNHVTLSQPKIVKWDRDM
From the text: as §1, §2, §3

[7] = tested on: HLA molecules of the A1 type; type: binding, human
[8] = tested on: HLA molecules of the B62 type; type: binding, human
From the text: as §1, §2, §3

Sequence	binding stably to HLA molecules of the B18 type [1]	binding stably to HLA molecules of the B8 type [4]	binding stably to HLA molecules of the B62 type [8]	other results
CPEEKQRHL (Human Papillomavirus)	binding stably	binding stably		binding stably to HLA molecules of the B35 type [2]: binding stably; binding stably to HLA molecules of the B51 type [3]: binding stably
CVYCKQQL (Human Papillomavirus)		binding stably		
DKKQRFHNI (Human Papillomavirus)		binding stably		
FAFRDLCIV (Human Papillomavirus)				binding stably to HLA molecules of the A2 type [5]: binding stably; binding stably to HLA molecules of the B35 type [2]: binding stably; binding stably to HLA molecules of the B51 type [3]: binding stably; binding stably to HLA molecules of the B7 type [6]: binding stably
ISEYRHYCY (Human Papillomavirus)	binding stably			binding stably to HLA molecules of the A1 type [7]: binding stably
KPLCDLLI (Human Papillomavirus)				binding stably to HLA molecules of the B35 type [2]: binding stably; binding stably to HLA molecules of the B51 type [3]: binding stably; binding stably to HLA molecules of the B7 type [6]: binding stably
LQPETTDLY (Human Papillomavirus)			binding stably	
NLLGRNSF (listed as Homo sapiens)			binding stably	
NTFRHSVVV		binding stably		
QAEPDRAHY (Human Papillomavirus)	binding stably			binding stably to HLA molecules of the A1 type [7]: binding stably
QPETTDLYCY (Human Papillomavirus)	binding stably			binding stably to HLA molecules of the A1 type [7]: binding stably
RVRAMAIY (listed as Homo sapiens)			binding stably	
TAKSVTCTY (listed as Homo sapiens)			binding stably	
